Test results: patent publication US20250262201A1, “COMPOUNDS AND METHODS USEFUL FOR STABILIZING PHENYLALANINE HYDROXYLASE MUTATIONS” (Agios Pharmaceuticals, Inc., priority 2022, published 2025)

Each compound was assayed against T1, human PAH with the R408W mutation (Homo sapiens, UniProt P00439, R408W) (assay: Cell Based Phenylalanine Flux Assay). Settings: A375 R408W cells, 24 hrs with compound, then 20 μM sepiapterin and 800 μM 13C9,15N-Phenylalanine for 4 hours; 13C-Tyrosine by LC-MS; average where tested multiple times; read-out: AC50.
T1 construct: expressed in transfected cells
T1 sequence (P00439 1-452 R408W): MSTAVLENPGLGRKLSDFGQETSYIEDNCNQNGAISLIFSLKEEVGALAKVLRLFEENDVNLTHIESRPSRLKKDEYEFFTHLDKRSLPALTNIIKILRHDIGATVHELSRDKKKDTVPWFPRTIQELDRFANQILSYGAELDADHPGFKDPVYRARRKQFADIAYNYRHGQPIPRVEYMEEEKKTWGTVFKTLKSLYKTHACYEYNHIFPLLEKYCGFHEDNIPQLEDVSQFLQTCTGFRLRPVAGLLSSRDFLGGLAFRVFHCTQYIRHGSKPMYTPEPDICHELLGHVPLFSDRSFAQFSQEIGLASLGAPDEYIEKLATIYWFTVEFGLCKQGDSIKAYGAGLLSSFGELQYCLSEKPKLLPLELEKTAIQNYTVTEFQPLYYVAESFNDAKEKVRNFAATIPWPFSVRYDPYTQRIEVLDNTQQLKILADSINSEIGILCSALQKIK

AC50 [µM] | SMILES
1 to 5 | O=C(c1cnc(C2CC2)s1)N1CCc2[nH]cnc2C1c1cn2ccccc2n1 (stereo not shown)
> 5 | O=C(c1nnc(N2CC(F)C2)o1)N1CCc2[nH]cnc2C1c1ccc2ccccc2n1 (stereo not shown)
1 to 5 | N#Cc1ncoc1C(=O)N1CCc2[nH]cnc2C1c1cn2ccccc2n1 (stereo not shown)
> 5 | Cc1nnc(C(=O)N2CCc3[nH]cnc3C2c2ccc3ccccc3n2)o1 (stereo not shown)
1 to 5 | COCCNc1nnc(C(=O)N2CC(C)c3[nH]cnc3C2c2cc3ccccc3cn2)o1 (stereo not shown)
1 to 5 | O=C(c1cncs1)N1CCc2[nH]cnc2C1c1cn2ccccc2n1 (stereo not shown)

Same assay, conditions: A375 cells expressing human R408W PAH; 24 hrs compound incubation; 13C-Tyrosine by LC-MS; average where tested multiple times; read-out: AC50

AC50 [µM] | SMILES
< 0.5 | COCc1ccc2c(C(=O)N3CCc4[nH]cnc4[C@H]3c3cc4ccccc4cn3)cnn2c1 [Example 314, (R)-(4-(isoquinolin-3-yl)-6,7-dihydro-1H-imidazo[4,5-c]pyridin-5(4H)-yl)(6-(methoxymethyl)pyrazolo[1,5-a]pyridin-3-yl)methanone]
< 0.5 | Fc1ccc(-c2nnc(N3CCc4[nH]cnc4[C@H]3c3cc4ccccc4cn3)o2)cc1 [Example 337, (R)-2-(4-fluorophenyl)-5-(4-(isoquinolin-3-yl)-6,7-dihydro-1H-imidazo[4,5-c]pyridin-5(4H)-yl)-1,3,4-oxadiazole]
1 to 5 | O=C(c1cnn(CC(F)(F)F)c1C(F)F)N1CCc2[nH]cnc2C1c1ccc2ccccc2n1 (stereo in doubt) [Example 125, (R)-(5-(difluoromethyl)-1-(2,2,2-trifluoroethyl)-1H-pyrazol-4-yl)(4-(quinolin-2-yl)-6,7-dihydro-1H-imidazo[4,5-c]pyridin-5(4H)-yl)methanone]
1 to 5 | O=C(C1CC1)N1CCc2[nH]cnc2[C@@H]1c1cc2ccccc2nn1 [Example 216, (R)-(4-(cinnolin-3-yl)-6,7-dihydro-1H-imidazo[4,5-c]pyridin-5(4H)-yl)(cyclopropyl)methanone]
< 0.5 | O=C(c1nnc(-c2cnccn2)o1)N1CCc2[nH]cnc2[C@H]1c1cc2ccccc2cn1 [Example 469, (R)-(4-(isoquinolin-3-yl)-6,7-dihydro-1H-imidazo[4,5-c]pyridin-5(4H)-yl)(5-(pyrazin-2-yl)-1,3,4-oxadiazol-2-yl)methanone]
< 0.5 | Cn1nccc1-c1nnc(C(=O)N2CCc3[nH]cnc3[C@H]2c2cc3ccccc3cn2)o1 [Example 447, (R)-(4-(isoquinolin-3-yl)-6,7-dihydro-1H-imidazo[4,5-c]pyridin-5(4H)-yl)(5-(1-methyl-1H-pyrazol-5-yl)-1,3,4-oxadiazol-2-yl)methanone]
> 5 | O=C(c1nnc(-c2cnn(C(F)F)c2)o1)N1CCc2[nH]cnc2[C@@H]1c1ncc2ccccc2n1 [Example 186, (R)-(5-(1-(difluoromethyl)-1H-pyrazol-4-yl)-1,3,4-oxadiazol-2-yl)(4-(quinazolin-2-yl)-6,7-dihydro-1H-imidazo[4,5-c]pyridin-5(4H)-yl)methanone]
1 to 5 | O=C(c1nnc(-c2ccn(C(F)F)n2)o1)N1CCc2[nH]cnc2C1c1ccc2ccccc2n1 (stereo in doubt) [Example 95, (S)-(5-(1-(difluoromethyl)-1H-pyrazol-3-yl)-1,3,4-oxadiazol-2-yl)(4-(quinolin-2-yl)-6,7-dihydro-1H-imidazo[4,5-c]pyridin-5(4H)-yl)methanone]
< 0.5 | O=C(c1oc(-c2ccc(C(F)(F)F)cn2)nc1C(F)F)N1CCc2[nH]cnc2[C@H]1c1ncc2ccccc2n1 [Example 278, (S)-(4-(difluoromethyl)-2-(5-(trifluoromethyl)pyridin-2-yl)oxazol-5-yl)(4-(quinazolin-2-yl)-6,7-dihydro-1H-imidazo[4,5-c]pyridin-5(4H)-yl)methanone]
< 0.5 | O=C(c1cnn2cc(-c3cnccn3)ccc12)N1CCc2[nH]cnc2[C@H]1c1cc2ccccc2cn1 [Example 477, (R)-(4-(isoquinolin-3-yl)-6,7-dihydro-1H-imidazo[4,5-c]pyridin-5(4H)-yl)(6-(pyrazin-2-yl)pyrazolo[1,5-a]pyridin-3-yl)methanone]
